Laboratory results as given in PubChem BioAssay (NCI).
“And” between values parts separate entries of the source, which are not always exact repeats. Equal entries are not always repeated.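 Where inhibition never reached the appropriate level, the endpoint shown equals the highest concentration tested. Otherwise, values were interpolated linearly from a five-concentration, 48-hour dose response in 96-well plates. Here, GI50 denotes the concentration required for 50% inhibition of growth. TGI: total growth inhibition.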

What was measured:
Assay in all cases: growth of human tumour cells (NCI), 48 h
KM12 colon = tested on: KM12 colon
MOLT-4 leukemia = tested on: MOLT-4 leukemia
SW-620 colon = tested on: SW-620 colon
NCI-H226 lung = tested on: NCI-H226 lung
ACHN renal = tested on: ACHN renal
CAKI-1 renal = tested on: CAKI-1 renal
MALME-3M melanoma = tested on: MALME-3M melanoma
BT-549 breast = tested on: BT-549 breast
A549 NSCLC = tested on: A549 NSCLC
NCI-H460 lung = tested on: NCI-H460 lung

Structure (SMILES)	GI50 (KM12 colon) [µM]	TGI (KM12 colon)	GI50 (MOLT-4 leukemia) [µM]	TGI (MOLT-4 leukemia)	GI50 (SW-620 colon) [µM]	TGI (SW-620 colon) [µM]	GI50 (NCI-H226 lung) [µM]	TGI (NCI-H226 lung)	GI50 (ACHN renal) [µM]	TGI (ACHN renal)	GI50 (CAKI-1 renal) [µM]	TGI (CAKI-1 renal)	GI50 (MALME-3M melanoma) [µM]	TGI (MALME-3M melanoma)	GI50 (BT-549 breast) [µM]	TGI (BT-549 breast)	GI50 (A549 NSCLC) [µM]	TGI (A549 NSCLC)	GI50 (NCI-H460 lung)	TGI (NCI-H460 lung)
CCCC(=O)O[C@]1(C)CC[C@@H]2[C@H]3[C@@H]1[C@@H]1C/C(C)=C\CC[C@](C)(OC(=O)[C@@H]2C)[C@H]3O1	32.8	> 100 µM	14.7	30.5 µM	40.6	> 100	41.3	> 100 µM	36.2	> 100 µM	31.7	> 100 µM	61.1	> 100 µM	61.9	> 100 µM	40.1	> 100 µM	22.5 µM	69.8 µM
CNC12C3C4C1C1C2C3C41C(=O)N[C@H](C(=O)N(C)[C@H](C[C@@H](OC(C)=O)c1nc(C(=O)N[C@@H](Cc2ccccc2)C[C@H](C)C(=O)OC)cs1)C(C)C)C1CC1 (some centres undefined)	0.276	6.69 µM	0.467	> 13.6 µM	0.21	> 15	1.73	> 14 µM	0.901	> 15 µM	2.73	> 15 µM	0.504	> 15 µM	0.123	0.745 µM	1.53	> 15 µM	0.517 µM	> 15 µM
COc1cccc2c1C(=O)c1c(O)c3c(c(O)c1C2=O)C[C@@](O)(C(C)=O)C[C@@H]3OC1CC(O)C(O)C(C)O1 (some centres undefined)	–	9.61 µM and 12.2 µM	–	0.523 µM and 0.137 µM	–	35.5	–	4.77 µM and 1.58 µM	0.397	2.41 µM and 2.85 µM	–	5.57 µM and 4.94 µM	–	6.66 µM and 5.96 µM	–	20.1 µM	–	6.31 µM and 10.4 µM	–	2.73 µM and 5.19 µM
Cc1ccc(N(/C=C/C(=O)C(F)(F)F)CC(=O)c2ccc(Cl)c(Cl)c2)cc1	3.53	15 µM	4.48	19.9 µM	2.88	15.2	14.9	28.7 µM	12.2	24.6 µM	12.4	24.9 µM	6	20.6 µM	2.22	11.2 µM	9.37	21.3 µM	8.73 µM	21 µM
Cn1ccc2c3c(=O)cc[nH]c3ccc21	> 100	> 100 µM	> 100	> 100 µM	> 100	> 100	> 100	> 100 µM	> 100	> 100 µM	32.4	95.1 µM	> 100	> 100 µM	> 100	> 100 µM	> 100	> 100 µM	> 100 µM	> 100 µM
O=C1C(CO)=C[C@@H](O)[C@H]2O[C@@H]12	–	> 100 µM	–	> 100 µM	–	> 100	–	> 100 µM	–	> 100 µM	–	> 100 µM	–	> 100 µM	–	> 100 µM	–	> 100 µM	–	> 100 µM
COc1ccc2c(c1)C(=O)c1c-2n(CCCN=[N+]=[N-])c(=O)c2cc(N)ccc12	53.6	> 100 µM	> 100	> 100 µM	> 100	> 100	> 100	> 100 µM	> 100	> 100 µM	> 100	> 100 µM	> 100	> 100 µM	> 100	> 100 µM	> 100	> 100 µM	> 100 µM	> 100 µM
Oc1cc2c(cc1C(c1ccc3c(c1)OCO3)N1CCN(C(c3ccc4c(c3)OCO4)c3cc4c(cc3O)OCO4)CC1)OCO2 (centres undefined)	–	30.8 µM	–	28.4 µM	–	25.3	–	29.6 µM	–	26.6 µM	–	47.9 µM	–	38.9 µM	–	45.1 µM	–	> 100 µM	–	> 100 µM
CCOc1ccc(NC(=O)c2cc3ccccc3cc2O)cc1	> 100	> 100 µM	> 100	> 100 µM	> 100	> 100	64.3	> 100 µM	49.9	> 100 µM	> 100	> 100 µM	39.7	> 100 µM	42	> 100 µM	> 100	> 100 µM	> 100 µM	> 100 µM
O=C(O)c1nnsc1-c1csnn1	–	> 100 µM	–	> 100 µM	–	> 100	–	> 100 µM	–	> 100 µM	–	> 100 µM	–	> 100 µM	–	> 100 µM	–	> 100 µM	–	> 100 µM
N=C1N=C(N)S/C1=C\c1ccc2ncccc2c1	> 25	> 25 µM	> 25	> 25 µM	> 25	> 25	> 25	> 25 µM	> 25	> 25 µM	> 25	> 25 µM	> 25	> 25 µM	> 25	> 25 µM	> 25	> 25 µM	> 25 µM	> 25 µM
CC(=O)N1N=C(c2ccc(Nc3nc(Nc4ccc(F)cc4)nc(Nc4ccc(Cl)cc4)n3)cc2)CC1c1ccc(N(C)C)cc1 (centres undefined)	6.02	20.9 µM	4.2	30.9 µM	13.3	56.8	4.91	28 µM	4.03	> 58.4 µM	9.28	> 54.3 µM	4.78	23.8 µM	5.05	17.5 µM	4.27	43 µM	6.68 µM	45 µM
N#CSCC1CC(O)(c2ccccc2)CC(c2ccc(Cl)cc2)O1 (centres undefined)	1.77	3.36 µM	1.29	5 µM	1.83	3.35	5.79	35.6 µM	2.78	8.25 µM	3.2	9.51 µM	2.65	7.35 µM	2.35	4.83 µM	3.74	17.3 µM	2.33 µM	6.38 µM
Clc1ccc(N/N=C(\c2ccccc2)c2ccccn2)nc1	0.39	> 41.4 µM and 5.81 µM	0.0367	–	0.0958	> 65.3	0.197	5.16 µM and 0.736 µM	0.0619	> 36.8 µM and 12.5 µM	0.172	2.3 µM and 16.7 µM	0.0904	72.2 µM and 25.7 µM	0.474	25 µM and 29.5 µM	–	> 100 µM and 15.9 µM	0.29 µM and 0.171 µM	> 39.9 µM and 13.6 µM
COC1C(O)CC(OC2CC(OC3CC(O[C@@H]4C(=O)c5c(cc6cc(OC7CC(OC8CC(O)C(O)C(C)O8)C(O)C(C)O7)c(C)c(O)c6c5O)C[C@H]4[C@H](OC)C(=O)[C@@H](O)[C@@H](C)O)OC(C)C3O)OC(C)C2O)OC1C (some centres undefined)	–	> 12 µM	–	0.222 µM	–	> 100	–	< 0.215 µM	–	> 100 µM	–	> 100 µM	–	0.243 µM	–	11.2 µM	–	> 100 µM	–	4.34 µM
CCCC(CCC)Oc1ccc(CCCC2=C(O)c3ccccc3C(=O)C2=O)cc1	6.18	22.3 µM	3.25	11.5 µM	4.61	17	4.24	20.8 µM	6.69	19 µM	2.46	8.66 µM	7.53	23.5 µM	8.74	20.9 µM	4.11	22.4 µM	3.03 µM	11.1 µM
CC(C)c1ccc(/C=N/N=C(N)N)cc1	3.3	11.6 µM	5.17	32.6 µM	2.9	11.6	12.2	26.3 µM	11.7	25.4 µM	6.31	22 µM	5.56	21.1 µM	13.2	30 µM	4.91	18.8 µM	3.89 µM	14.4 µM
O=C1Nc2ccc(CN3CCOC3=O)cc2/C1=C/c1cc(CN2CCOCC2)c[nH]1	4.08	> 100 µM	28.5	78.7 µM	37.9	> 100	28.1	> 100 µM	56	> 100 µM	26.3	> 100 µM	> 71.5	> 100 µM	23.5	> 79.5 µM	49.7	> 100 µM	36.2 µM	> 100 µM
CC(=O)[O][Hg][CH2]C1(C)COC(C)([CH2][Hg][O]C(C)=O)CO1 (centres undefined)	4.1	8.4 µM	0.747	3.14 µM	1.51	3.11	6.16	14.2 µM	1.5	2.84 µM	0.805	2.42 µM	4.66	9.23 µM	1.76	3.64 µM	7.79	38.4 µM	15.7 µM	40.4 µM
O=C(Nc1nc(-c2ccccc2)cs1)c1cc(O)c(O)c(O)c1	8.02	26.9 µM	1.57	19.4 µM	2.66	37.4	8.08	54.8 µM	2.47	56.3 µM	1.42	16.6 µM	8.86	71.1 µM	3.46	31.4 µM	5.62	51.4 µM	3.43 µM	17 µM
